Laboratory results taken from ChEMBL document CHEMBL1201862, “PubChem BioAssay data set” (2004).
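Exposure lasted 48 hours, with cells grown in 96-well plates and compounds tested at five concentrations. Abbreviation: GI50, concentration required for 50% inhibition of growth.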 Active and inactive are the calls of the source. Rule as the data show it: active = GI50 up to about 1.1 µM and inactive = higher.

Tests used:
Assay in all cases: growth of human tumour cells (NCI), 48 h
[1] = system: HOP-62
[2] = system: DMS-114
[3] = system: 786-0
[4] = system: OVCAR-4
[5] = system: KM-20L2
[6] = system: SNB-19
[7] = system: UACC-257
[8] = system: RPMI-8226
[9] = system: SK-MEL-2
[10] = system: SR
[11] = system: HCT-116
[12] = system: HCC 2998
[13] = system: SN12C
[14] = system: SK-MEL-28
[15] = system: SNB-78
[16] = system: OVCAR-8
[17] = system: SK-MEL-5
[18] = system: M14
[19] = system: SK-OV-3
[20] = system: IGROV-1
[21] = system: TK-10
[22] = system: HT-29
[23] = system: SF-539
[24] = system: SF-295
[25] = system: LXFL 529
[26] = system: M19-MEL
[27] = system: DMS-273
[28] = system: EKVX
[29] = system: NCI-H460
[30] = system: COLO 205
[31] = system: NCI-H23
[32] = system: LOX IMVI
[33] = system: NCI-H226
[34] = system: CAKI-1
[35] = system: OVCAR-3
[36] = system: Malme-3M
[37] = system: U-251
[38] = system: A498
[39] = system: UACC-62
[40] = system: ACHN
[41] = system: HL-60
[42] = system: KM12
[43] = system: UO-31
[44] = system: SNB-75
[45] = system: SW-620
[46] = system: HOP-92
[47] = system: A549
[48] = system: DLD-1
[49] = system: HCT-15
[50] = system: MOLT-4
[51] = system: SF-268
[52] = system: CCRF-CEM
[53] = system: K562
[54] = system: OVCAR-5
[55] = system: HOP-18
[56] = system: RXF 393
[57] = system: NCI-H522
[58] = system: MCF7
[59] = system: Hs-578T
[60] = system: BT-549
[61] = system: T47D
[62] = system: MDA-N
[63] = system: NCI/ADR-RES
[64] = system: MDA-MB-231
[65] = system: DU-145
[66] = system: MDA-MB-435
[67] = system: PC-3

c1ccc(CN2CCCCC(Sc3ccccc3)CC2)cc1 (stereo unspecified)
GI50 [1]: 64.4 µM (inactive)
GI50 [2]: 22.4 µM (inactive)
GI50 [3]: 16.8 µM (inactive)
GI50 [4]: 46.7 µM (inactive)
GI50 [5]: 26.4 µM (inactive)
GI50 [6]: 34 µM (inactive)
GI50 [7]: > 100 µM (inactive)
GI50 [8]: 17.8 µM (inactive)
GI50 [9]: 32.9 µM (inactive)
GI50 [10]: 17.8 µM (inactive)
GI50 [11]: 27.2 µM (inactive)
GI50 [12]: 16 µM (inactive)
GI50 [13]: 24.7 µM (inactive)
GI50 [14]: 45.3 µM (inactive)
GI50 [15]: 27.2 µM (inactive)
GI50 [16]: 27.8 µM (inactive)
GI50 [17]: 18.7 µM (inactive)
GI50 [18]: 16.1 µM (inactive)
GI50 [19]: 58.2 µM (inactive)
GI50 [20]: 91.6 µM (inactive)
GI50 [21]: 58.7 µM (inactive)
GI50 [22]: 17.7 µM (inactive)
GI50 [23]: 29.8 µM (inactive)
GI50 [24]: 40.5 µM (inactive)
GI50 [25]: 17.7 µM (inactive)
GI50 [26]: 3.1 µM (inactive)
GI50 [27]: 12.6 µM (inactive)
GI50 [28]: 35.2 µM (inactive)
GI50 [29]: 20.2 µM (inactive)
GI50 [30]: 13.4 µM (inactive)
GI50 [31]: 30.1 µM (inactive)
GI50 [32]: 16.5 µM (inactive)
GI50 [33]: 32.1 µM (inactive)
GI50 [34]: 26.9 µM (inactive)
GI50 [35]: 33.9 µM (inactive)
GI50 [36]: 19.1 µM (inactive)
GI50 [37]: 15.9 µM (inactive)
GI50 [38]: > 100 µM (inactive)
GI50 [39]: 36 µM (inactive)
GI50 [40]: 47.3 µM (inactive)
GI50 [41]: 23.3 µM (inactive)
GI50 [42]: > 100 µM (inactive)
GI50 [43]: 15.3 µM (inactive)
GI50 [44]: 30.5 µM (inactive)
GI50 [45]: 1.53 µM (inactive)
GI50 [46]: 28.5 µM (inactive)
GI50 [47]: 87.3 µM (inactive)
GI50 [48]: 20.8 µM (inactive)
GI50 [49]: 17.6 µM
GI50 [50]: 20.8 µM (inactive)
GI50 [51]: > 100 µM (inactive)
GI50 [52]: 19.2 µM (inactive)
GI50 [53]: 15.5 µM (inactive)
GI50 [54]: 18.3 µM (inactive)
GI50 [55]: 42.7 µM (inactive)

N=C1OC(c2ccc3c(c2)OCO3)C(NNS(=O)(=O)c2ccccc2)=C1O (stereo unspecified)
GI50 [1]: > 100 µM (inactive)
GI50 [2]: > 100 µM (inactive)
GI50 [3]: > 100 µM (inactive)
GI50 [4]: > 100 µM (inactive)
GI50 [5]: > 100 µM (inactive)
GI50 [6]: > 100 µM (inactive)
GI50 [7]: > 100 µM (inactive)
GI50 [8]: 87.1 µM (inactive)
GI50 [9]: 68.2 µM (inactive)
GI50 [10]: 61.2 µM (inactive)
GI50 [11]: > 100 µM (inactive)
GI50 [12]: > 100 µM (inactive)
GI50 [13]: > 100 µM (inactive)
GI50 [14]: > 100 µM (inactive)
GI50 [15]: > 100 µM (inactive)
GI50 [56]: > 100 µM (inactive)
GI50 [16]: > 100 µM (inactive)
GI50 [17]: 38.1 µM (inactive)
GI50 [18]: 46.6 µM (inactive)
GI50 [19]: > 100 µM (inactive)
GI50 [20]: > 100 µM (inactive)
GI50 [21]: > 100 µM (inactive)
GI50 [22]: > 100 µM (inactive)
GI50 [23]: > 100 µM (inactive)
GI50 [24]: > 100 µM (inactive)
GI50 [25]: 58.2 µM (inactive)
GI50 [26]: 30.4 µM (inactive)
GI50 [27]: > 100 µM (inactive)
GI50 [28]: > 100 µM (inactive)
GI50 [29]: > 100 µM (inactive)
GI50 [30]: > 100 µM (inactive)
GI50 [31]: 52.5 µM (inactive)
GI50 [32]: > 100 µM (inactive)
GI50 [33]: > 100 µM (inactive)
GI50 [34]: > 100 µM (inactive)
GI50 [35]: > 100 µM (inactive)
GI50 [36]: > 100 µM (inactive)
GI50 [37]: 54.7 µM (inactive)
GI50 [38]: > 100 µM (inactive)
GI50 [39]: > 100 µM (inactive)
GI50 [40]: > 100 µM (inactive)
GI50 [57]: 48.5 µM (inactive)
GI50 [41]: > 100 µM (inactive)
GI50 [42]: > 100 µM (inactive)
GI50 [43]: > 100 µM (inactive)
GI50 [44]: > 100 µM (inactive)
GI50 [45]: > 100 µM (inactive)
GI50 [46]: > 100 µM (inactive)
GI50 [47]: > 100 µM (inactive)
GI50 [48]: > 100 µM (inactive)
GI50 [49]: > 100 µM
GI50 [50]: > 100 µM (inactive)
GI50 [51]: > 100 µM (inactive)
GI50 [52]: 44.6 µM (inactive)
GI50 [53]: > 100 µM (inactive)
GI50 [54]: > 100 µM (inactive)
GI50 [55]: > 100 µM (inactive)

CCCCCCCCCCCCCCCC(=O)Nc1ccn(C2OC(CO)C(O)C2O)c(=O)n1 (stereo unspecified)
GI50 [1]: 0.887 µM (active)
GI50 [2]: 4.89 µM (inactive)
GI50 [3]: 4.01 µM (inactive)
GI50 [4]: > 100 µM (inactive)
GI50 [5]: 40.3 µM (inactive)
GI50 [6]: 15.2 µM (inactive)
GI50 [58]: 0.94 µM (active)
GI50 [7]: 78.3 µM (inactive)
GI50 [59]: > 45.2 µM (inactive)
GI50 [8]: 42.2 µM (inactive)
GI50 [9]: > 100 µM (inactive)
GI50 [10]: 0.6 µM (active)
GI50 [60]: 33.7 µM (inactive)
GI50 [11]: 1.21 µM (inactive)
GI50 [12]: 25.1 µM (inactive)
GI50 [13]: 31 µM (inactive)
GI50 [14]: 41.9 µM (inactive)
GI50 [15]: > 100 µM (inactive)
GI50 [56]: 24.6 µM (inactive)
GI50 [61]: 30.1 µM (inactive)
GI50 [16]: 6.55 µM (inactive)
GI50 [17]: 29.9 µM (inactive)
GI50 [18]: 3.21 µM (inactive)
GI50 [19]: 16.7 µM (inactive)
GI50 [62]: 30.3 µM (inactive)
GI50 [20]: 35.6 µM (inactive)
GI50 [21]: > 100 µM (inactive)
GI50 [22]: 25.7 µM (inactive)
GI50 [23]: 57.7 µM (inactive)
GI50 [24]: 51.1 µM (inactive)
GI50 [63]: 7.23 µM (inactive)
GI50 [64]: > 62.8 µM (inactive)
GI50 [25]: 39.5 µM (inactive)
GI50 [26]: 13.1 µM (inactive)
GI50 [27]: 5.66 µM (inactive)
GI50 [28]: > 100 µM (inactive)
GI50 [29]: 0.78 µM (active)
GI50 [30]: 37.9 µM (inactive)
GI50 [31]: 2.05 µM (inactive)
GI50 [32]: 5.25 µM (inactive)
GI50 [33]: 30.5 µM (inactive)
GI50 [65]: 3.38 µM (inactive)
GI50 [34]: 28.7 µM (inactive)
GI50 [35]: 34.2 µM (inactive)
GI50 [36]: 4.22 µM (inactive)
GI50 [37]: 12.4 µM (inactive)
GI50 [38]: 22.1 µM (inactive)
GI50 [39]: 24.2 µM (inactive)
GI50 [66]: 27.6 µM (inactive)
GI50 [40]: 3.08 µM (inactive)
GI50 [57]: 2.25 µM (inactive)
GI50 [41]: 2.77 µM (inactive)
GI50 [42]: 29.4 µM (inactive)
GI50 [43]: 3.4 µM (inactive)
GI50 [44]: 30.5 µM (inactive)
GI50 [45]: > 90.4 µM (inactive)
GI50 [46]: 16.6 µM (inactive)
GI50 [47]: 2.62 µM (inactive)
GI50 [48]: > 54.7 µM (inactive)
GI50 [49]: 17.7 µM
GI50 [50]: 0.131 µM (active)
GI50 [51]: 15.2 µM (inactive)
GI50 [52]: 0.0308 µM (active)
GI50 [53]: 9.75 µM (inactive)
GI50 [54]: 45.4 µM (inactive)
GI50 [55]: 21.4 µM (inactive)
GI50 [67]: 3.78 µM (inactive)

Cn1cnc([N+](=O)[O-])c1Sc1nc2cc(Cl)c(F)cc2[nH]1
GI50 [1]: 74.5 µM (inactive)
GI50 [2]: 6.35 µM (inactive)
GI50 [3]: > 10 µM (inactive)
GI50 [4]: 4.34 µM (inactive)
GI50 [5]: 11.4 µM (inactive)
GI50 [6]: 26.4 µM (inactive)
GI50 [7]: 11.6 µM (inactive)
GI50 [8]: 7.24 µM (inactive)
GI50 [10]: 1.75 µM (inactive)
GI50 [11]: 6.9 µM (inactive)
GI50 [12]: 7.6 µM (inactive)
GI50 [13]: 14.1 µM (inactive)
GI50 [14]: 13.5 µM (inactive)
GI50 [15]: 2.43 µM (inactive)
GI50 [56]: 3.69 µM (inactive)
GI50 [16]: 3.75 µM (inactive)
GI50 [17]: 11.7 µM (inactive)
GI50 [18]: 13.5 µM (inactive)
GI50 [19]: 21.5 µM (inactive)
GI50 [20]: 7.66 µM (inactive)
GI50 [21]: 14.5 µM (inactive)
GI50 [22]: 14.9 µM (inactive)
GI50 [23]: 4.32 µM (inactive)
GI50 [24]: 48.4 µM (inactive)
GI50 [25]: 5.7 µM (inactive)
GI50 [26]: 11.7 µM (inactive)
GI50 [27]: 3.54 µM (inactive)
GI50 [28]: 1.38 µM (inactive)
GI50 [29]: 10.3 µM (inactive)
GI50 [30]: 6.43 µM (inactive)
GI50 [31]: 11.5 µM (inactive)
GI50 [32]: 16.1 µM (inactive)
GI50 [33]: 9.55 µM (inactive)
GI50 [34]: 2.58 µM (inactive)
GI50 [35]: > 10 µM (inactive)
GI50 [36]: 13.7 µM (inactive)
GI50 [37]: 8.41 µM (inactive)
GI50 [38]: 18.6 µM (inactive)
GI50 [39]: 14 µM (inactive)
GI50 [40]: 12.9 µM (inactive)
GI50 [42]: 15 µM (inactive)
GI50 [43]: 11.3 µM (inactive)
GI50 [44]: 13.8 µM (inactive)
GI50 [45]: 5.73 µM (inactive)
GI50 [46]: 13.8 µM (inactive)
GI50 [47]: 15.3 µM (inactive)
GI50 [48]: 7.67 µM (inactive)
GI50 [49]: 4.37 µM
GI50 [50]: 2.08 µM (inactive)
GI50 [51]: 10.1 µM (inactive)
GI50 [54]: 16.8 µM (inactive)
GI50 [55]: 7.8 µM (inactive)
